IC50 data for eight molecules are collected here from patent US20100179109A1, “RENIN INHIBITORS” (priority 2007, published 2010).

pIC50: −log10 of the molar value.

The experiment has as its target T1, trypsin-activated recombinant human renin (Homo sapiens, UniProt P00797).
T1 sequence (P00797 67-406): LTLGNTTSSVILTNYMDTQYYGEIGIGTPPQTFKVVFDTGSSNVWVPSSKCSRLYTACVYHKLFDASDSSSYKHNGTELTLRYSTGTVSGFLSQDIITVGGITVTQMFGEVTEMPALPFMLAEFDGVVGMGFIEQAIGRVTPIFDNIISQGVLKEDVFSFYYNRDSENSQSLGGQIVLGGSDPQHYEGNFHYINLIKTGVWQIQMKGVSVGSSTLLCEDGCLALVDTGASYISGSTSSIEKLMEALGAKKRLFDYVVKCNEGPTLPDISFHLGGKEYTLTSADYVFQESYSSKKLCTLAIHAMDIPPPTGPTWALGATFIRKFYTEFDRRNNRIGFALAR
Put plainly: In vitro renin assay, fluorescently labeled peptide, LJL Acquest, results as pIC50 (Example 22). To be noted: found not to demonstrate inhibition at concentrations below the stated value. It counts as biochemical. On the procedure: The potency of renin inhibitors was measured using an in vitro renin assay. In this assay, renin-catalyzed proteolysis of a fluorescently labeled peptide converts the peptide from a weakly fluorescent to a strongly fluorescent molecule. The following test protocol was used. Substrate solution (5 μl; 2 μM Arg-Glu-Lys(5-Fam)-Ile-His-Pro-Phe-His-Leu-Val-Ile-His-Thr-Lys(5,6 Tamra)-Arg-CONH2 in 50 mM Hepes, 125 mM NaCl, 0.1% CHAPS, pH 7.4) then trypsin-activated recombinant human renin (Scott, Martin J. et. al. Protein Expression and Purification 2007, 52(1), 104-116; 5 μL; 600 pM renin in 50 mM Hepes, 125 mM NaCl, 0.1% CHAPS, pH 7.4) were added sequentially to a black Greiner low volume 384-well plate (cat.#784076) pre-stamped with a 100 nl DMSO solution of compound at the desired concentration. The assay plates were incubated at room temperature for 2 hours with a cover plate then quenched by the addition of a stop solution (2 μL; 5 μM of Bachem C-3195 in 50 mM Hepes, 125 mM NaCl, 0.1% CHAPS, pH 7.4, 10% DMSO). The assay plates were read on an LJL Acquest using a 485 nm excitation filter, a 530 nm emission filter, and a 505 nm dichroic filter. Compounds were initially prepared in neat DMSO at a concentration of 10 mM. For inhibition curves, compounds were diluted using a three fold serial dilution and tested at 11 concentrations (e.g. 50 μM-0.8 nM or 25 μM-0.42 nM or 2.5 μM to […]). Curves were analyzed using ActivityBase and XLfit, and results were expressed as pIC50 values.

As a reminder, the pIC50 is −log10 of the IC50, conventionally taken in molar units. Consider `CNCc1ccc(C(=O)N2CCOC(C(O)(CCCNC(=O)OC)c3cccc(F)c3-c3cc(C)cc(OC)c3)C2)cc1` (centres unmarked), for which the negative logarithm of the IC50 (pIC50) was ≤ 4.30.
To `COCCCCC(O)(c1ccccc1Oc1c(C)cccc1C)C1CCCN(C(=O)c2ccc(CN)cc2)C1` (centres unmarked) [1-(1-{[4-(aminomethyl)phenyl]carbonyl}-3-piperidinyl)-1-{2-[(2,6-dimethylphenyl)oxy]phenyl}-5-(methyloxy)-1-pentanol] belongs ≤ 4.30.
To `COCCCCC(O)(c1cccc(Cl)c1Cc1ccccc1C)C1CCCN(C(=O)c2ccc(CN)cc2)C1` (centres unmarked) [1-(1-{[4-(aminomethyl)phenyl]carbonyl}-3-piperidinyl)-1-{3-chloro-2-[(2-methylphenyl)methyl]phenyl}-5-(methyloxy)-1-pentanol] belongs ≤ 4.30; to `CNCc1ccc(C(=O)N2CCOC(C(O)(CCCCOC)c3cccc(Cl)c3-c3nc(C(C)C)c4ccccc4n3)C2)cc1` (centres unmarked) [1-{3-chloro-2-[4-(1-methylethyl)-2-quinazolinyl]phenyl}-1-[4-({4-[(methylamino)methyl]phenyl}carbonyl)-2-morpholinyl]-5-(methyloxy)-1-pentanol], ≤ 4.30.
To `CNCc1ccc(C(=O)N2CCCC(C(O)(CCCCOC)c3cccc(Cl)c3Cc3cccc(C)c3)C2)cc1` (centres unmarked) [1-{3-chloro-2-[(3-methylphenyl)methyl]phenyl}-1-[1-({4-[(methylamino)methyl]phenyl}carbonyl)-3-piperidinyl]-5-(methyloxy)-1-pentanol] belongs ≤ 4.30; to `CCc1cccc(-c2c(Cl)cccc2C(OCCNC(=O)OC)C2CN(C(=O)c3ccc(CNC)cc3)CCO2)c1` (centres unmarked) [methyl [2-({(6-chloro-3′-ethyl-2-biphenylyl)[4-({4-[(methylamino)methyl]phenyl}carbonyl)-2-morpholinyl]methyl}oxy)ethyl]carbamate], ≤ 4.30.
For `COC(=O)NCCCC(O)(c1cccc(F)c1-c1cc(C)cc(OC)c1)C1CN(C(=O)C2CCC(N)C2)CCO1` (centres unmarked) [methyl {4-(4-{[3-aminocyclopentyl]carbonyl}-2-morpholinyl)-4-[6-fluoro-3′-methyl-5′-(methyloxy)-2-biphenylyl]-4-hydroxybutyl}carbamate], the pIC50 was ≤ 4.30.
As for `CNCc1ccc(C(=O)N2CCCC(C(O)(CCCNC(=O)OC)c3cccc(F)c3-c3cccs3)C2)cc1` (centres unmarked) [methyl {4-[3-fluoro-2-(2-thienyl)phenyl]-4-hydroxy-4-[1-({4-[(methylamino)methyl]phenyl}carbonyl)-3-piperidinyl]butyl}carbamate], the pIC50 was ≤ 4.30.
